Experiments:
[1] = patients treated with the agent; cited from earlier work
[2] = PPE grade observed in the treated patients under anti-cancer drug; type: in vivo, human; details: individual patient before sildenafil
Protocol: (§1) The first patient had both metastatic pancreatic cancer and a history of mild Raynaud's syndrome.
(§2) The third patient was a person with a gastro-intestinal stromal tumor (GIST) refractory to imatinib, who was being treated with sunitinib. […] They were treated with topical 2% sildenafil three times daily. To ensure activity in the setting of potentially significant costs for custom formulation, this patient applied topical sildenafil to only their left hand. […] This patient later was dosed with 1% topical sildenafil once per week. In addition, this patient experienced sunitinib-induced gastrointestinal toxicities (enteritis, diarrhea), which were treated with oral sildenafil to allow systemic absorption. The initial dose was 50 mg oral sildenafil daily. […] Thereafter lower doses were used on an as needed basis, including a quarter tablet (50 mg size) given once or twice per week.
(§3) A fourth patient was a person with metastatic angiosarcoma, who was treated with sunitinib for over four years.

[3] = Side effects of sildenafil treatment in the PPE patients; type: in vivo, human
Protocol: The third patient was a person with a gastro-intestinal stromal tumor (GIST) refractory to imatinib, who was being treated with sunitinib. Despite a gratifying response to sunitinib, they experienced grade 3 sunitinib-related PPE that required frequent dose holding and reduction. They were treated with topical 2% sildenafil three times daily. To ensure activity in the setting of potentially significant costs for custom formulation, this patient applied topical sildenafil to only their left hand. […] After only 3 doses (1 day) they noticed an improvement on the tenderness and redness of their hands. […] The improvement was “like day and night.” The right hand had all of these complications. These were severe enough that the patient had difficulty physically closing their hand more than halfway due to skin thickening as well as pain. Their left hand was completely flexible. After administration to both hands, they were able for the first time in many months to shake hands and make a first without difficulty or pain and they restarted playing their guitar in their church choir. This patient later was dosed with 1% topical sildenafil once per week. In addition, this patient experienced sunitinib-induced gastrointestinal toxicities (enteritis, diarrhea), which were treated with oral sildenafil to allow systemic absorption. The initial dose was 50 mg oral sildenafil daily. […] Thereafter lower doses were used on an as needed basis, including a quarter tablet (50 mg size) given once or twice per week.
Since each of these patients initially had only one affected skin region treated, followed by treatment of the other similarly affected regions, each patient was able to serve as her/his own control.

[4] = Oral sildenafil treatment of sunitinib-induced gastrointestinal toxicities and hand-foot syndrome (case report); type: in vivo, human; details: third patient; 50 mg oral sildenafil daily
Protocol: as §2

[5] = Topical sildenafil treatment of patients with drug-induced PPE (case reports); type: in vivo, human
Protocol: Four patients were treated with topical sildenafil for PPE, two with PPE related to capecitabine and two with PPE related to sunitinib. […] This initial clinical experience was outside the context of formal clinical trials, since no such trials were available.
as §1
Administration of 5FU was held due to the severity and persistence of the hand-foot syndrome. Topical sildenafil was applied to only the left hand.
as §2, §3

## CCCCCOC(=O)Nc1nc(=O)n([C@@H]2O[C@H](C)[C@@H](O)[C@H]2O)cc1F [capecitabine]
[1]
  frequency of any grade (grade 1-3) PPE: ≤ 54%
  frequency of severe (grade 3) PPE: ≤ 17%
[2]
  PPE grade under anti-cancer treatment: 2-3 grade

## CCCc1nn(C)c2c(=O)[nH]c(-c3cc(S(=O)(=O)N4CCN(C)CC4)ccc3OCC)nc12 [sildenafil]
[3]; all treated patients
  adverse impact on cancer's response to treatment: no patient had any suggestion of an adverse impact
  local or systemic side effects: No local or systemic side effects
[3]; third patient, topical 2% three times daily, month of treatment
  side effects such as headache, chest pain, lightheadedness, spontaneous erections: no side effects
[4]
  gastrointestinal toxicities and hand-foot syndrome: rapidly improved
  time to improvement of gastrointestinal toxicities and hand-foot syndrome: ≤ 1 days
[5]; first patient (capecitabine, Raynaud's), topical 2% applied to ulcers, within a week
  patient's pain and size and depth of the digital ulcers: marked improvement
[5]; first patient, topical, full palm of one hand
  PPE of the treated palm: significant improvement
[5]; fourth patient (sunitinib 37.5 mg per day, grade 1 at start), topical 2% in cold cream base
  PPE of treated right hand and foot: improved markedly
[5]; fourth patient, topical 2% in cold cream base
  time to marked improvement of treated right hand and foot: 1-2 weeks
[5]; second patient (capecitabine/5FU regimens), topical to left hand only, by day 8
  pain and redness of the left hand: improvement
[5]; second patient, by day 72
  hand-foot syndrome in both hands: resolved
[5]; third patient (sunitinib, grade 3 PPE), topical 2% three times daily, left hand, after 3 doses (1 day)
  tenderness and redness of hands: improvement
[5]; third patient, topical 2% three times daily, after 4 weeks
  multiple blisters, cracks, and callousness: resolved essentially completely
[5]; third patient, topical 2% three times daily, by one week
  pain, redness and blisters: markedly improved
[5]; topical sildenafil, patients with capecitabine- or sunitinib-related PPE
  PPE-related symptoms: significantly improved

## CNC(=O)c1cc(Oc2ccc(NC(=O)Nc3ccc(Cl)c(C(F)(F)F)c3)cc2)ccn1 [sorafenib]
[1]
  frequency of any grade (grade 1-3) PPE: ≤ 30%
  frequency of severe (grade 3) PPE: ≤ 8%

## CCN(CC)CCNC(=O)c1c(C)[nH]c(/C=C2\C(=O)Nc3ccc(F)cc32)c1C [sunitinib]
[1]
  frequency of any grade (grade 1-3) PPE: up to 21%
  frequency of severe (grade 3) PPE: up to 5%
[2]
  PPE grade under anti-cancer treatment: 3 grade

Source: patent US20160074405A1, “COMPOSITIONS AND METHODS FOR THE TREATMENT OF DRUG-INDUCED HAND-FOOT SYNDROME” (Duke University, priority 2009, published 2016)
